# Several values for one entry are separate records, joined by “and”; a condition that tells them apart may be missing. Equal entries are not always repeated. Where two headings read alike, the source gives them in different places.
# Columns and labels:
# MOLM14 = assay: Proliferation assay (spheroid assay) MOLM14; type: cell-based, human
# In short: (§1)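 Cells grown as spheroids in ultra-low attachment round-bottom wells with compound at varied concentrations (0.3% DMSO) for 8 d at 37 °C; confluence imaged every 4 h. AUC of confluence over time (t=0 baseline) expressed as % of vehicle control; absolute IC50 from nonlinear least-squares fit.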
# K562 = assay: Proliferation assay (spheroid assay) K562, control cell line; type: cell-based; conditions: Homo sapiens
# Method: (§2) The anti-proliferative effect of menin/MLL protein/protein interaction inhibitor test compounds was assessed in human leukemia cell lines. The cell lines MV-4-11 and MOLM14 harbor MLL translocations and express the MLL fusion proteins MLL-AF4 and MLL-AF9, respectively, as well as the wildtype protein from the second allele. […] K562 and KG1 were used as a control cell lines containing two MLL wildtype alleles in order to exclude compounds that display general cytotoxic effects.
# (§3) MV-4-11 and MOLM14 were cultured in RPMI-1640 (Sigma Aldrich) supplemented with 10% fetal bovine serum (HyClone), 2 mM L-glutamine (Sigma Aldrich) and 50 μg/ml gentamycin (Gibco). K562 were propagated in RPMI-1640 (Sigma Aldrich) supplemented with 20% fetal bovine serum (HyClone), 2 mM L-glutamine (Sigma Aldrich) and 50 μg/ml gentamycin (Gibco). KG1 were cultured in Iscove's MDM (Gibco) supplemented with 20% fetal bovine serum (HyClone), 2 mM L-glutamine (Sigma Aldrich) and 50 μg/ml gentamycin (Gibco).
# (§4) In order to assess the anti-proliferative effects, 1,500 MV-4-11, 300 MOLM14, 750 K562 or 1,300 KG1 cells were seeded in 200 μl media per well in 96-well round bottom, ultra-low attachment plates (Costar, catalogue number 7007). Cell seeding numbers were chosen based on growth curves to ensure linear growth throughout the experiment. Test compounds were added at different concentrations and the DMSO content was normalized to 0.3%. Cells were incubated for 8 d at 37° C. and 5% CO2. Spheroid like growth was monitored in real-time by live-cell imaging (IncuCyteZOOM, Essenbio, 4× objective) acquiring one image every four hours for 8 d. Confluence (%) as a measure of spheroid size was determined using an integrated analysis tool.
# (§5) In order to determine the cumulative effect of the test compounds over time, the area under the curve (AUC) in a plot of confluence against time was calculated. Confluence at the beginning of the experiment (t=0) was used as baseline for the AUC calculation.
# (§6) Absolute IC50 values were calculated according to the following procedure: % Control=(AUC sample/AUC control)*100 AUC control=mean AUC of control values (cells without compound/DMSO as vehicle control)
# (§7) A non-linear curve fit was applied using the least squares (ordinary) fit method to the plot of % control versus compound concentration. Based on this, the absolute IC50 value (half maximal inhibitory concentration of the test compound causing an anti-proliferative effect of 50% relative to the vehicle control) was calculated.
# MV-4-11 = assay: Proliferation assay (spheroid assay) MV-4-11; type: cell-based, human
# In short: as §1
# KG1 = assay: Proliferation assay (spheroid assay) KG1, control cell line; type: cell-based; conditions: Homo sapiens
# Method: as §2, §3, §4, §5, §6, §7
# menin = target: T1, menin (Homo sapiens, UniProt O00255, T541A); assay: Menin/MLL fluorescence polarization (FP) assay; type: binding
# T1 sequence (O00255 with tags, fused parts or gaps T541A): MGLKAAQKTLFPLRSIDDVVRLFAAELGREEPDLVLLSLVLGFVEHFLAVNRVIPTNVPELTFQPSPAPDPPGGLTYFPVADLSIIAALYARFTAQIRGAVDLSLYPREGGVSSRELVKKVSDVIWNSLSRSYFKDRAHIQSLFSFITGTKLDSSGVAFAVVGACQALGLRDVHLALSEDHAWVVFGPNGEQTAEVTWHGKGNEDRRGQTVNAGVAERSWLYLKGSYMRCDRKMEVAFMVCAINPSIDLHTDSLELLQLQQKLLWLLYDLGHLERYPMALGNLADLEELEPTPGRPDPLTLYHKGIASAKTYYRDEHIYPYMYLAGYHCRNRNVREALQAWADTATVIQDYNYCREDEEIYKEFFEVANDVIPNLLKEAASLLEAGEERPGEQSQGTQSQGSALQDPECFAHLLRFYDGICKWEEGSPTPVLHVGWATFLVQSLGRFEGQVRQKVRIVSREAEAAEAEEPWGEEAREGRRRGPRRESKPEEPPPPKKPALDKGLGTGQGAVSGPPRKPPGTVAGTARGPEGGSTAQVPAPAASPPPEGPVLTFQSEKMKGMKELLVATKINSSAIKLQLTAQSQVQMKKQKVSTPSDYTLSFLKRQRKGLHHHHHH
# Method: 1) Menin/MLL Fluorescence Polarization Assay
# To a non-surface binding, black 384-well microtiter plate was added 50 nL 160× test compound in DMSO and 4 μL 2× menin in assay buffer (40 mM Tris·HCl, pH 7.5, 50 mM NaCl, 1 mM DTT and 0.001% Tween 20). After incubation of test compound and menin for 10 min at ambient temperature, 4 μL 2×FITC-MBM1 peptide (FITC-β-alanine-SARWRFPARPGT-NH2 (SEQ ID NO: 2)) in assay buffer was added, the microtiter plate centrifuged at 1000 rpm for 1 min and the assay mixtures incubated for 15 min at ambient temperature. The relative amount of menin·FITC-MBM1 complex present in an assay mixture is determined by measuring the fluorescence polarization (FP) of the FITC label with a BMG Pherastar plate reader (ex. 485 nm/em. 520 nm) at ambient temperature. The final concentrations of reagents in the binding assay are 100 nM menin, 5 nM FITC-MBM1 peptide and 0.625% DMSO in assay buffer. Dose-response titrations of test compounds are conducted using an 11 point, three-fold serial dilution scheme, starting at 31 μM.
# Compound potencies were determined by first calculating % inhibition at each compound concentration according to equation 1: % inhibition=((HC−LC)−(FP^compound−LC))/(HC−LC))*100 (Eqn 1)
# Where LC and HC are the FP values of the assay in the presence or absence of a saturating concentration of a compound that competes with FITC-MBM1 for binding to menin, and FP^compound is the measured FP value in the presence of the test compound. HC and LC FP values represent an average of at least 16 replicates per plate. […] 2) Proliferation Assay
# [1] = Homo sapiens, MOLM-14, MOLM14, averaged values, read-out: Spheroid assay MOLM14 (IC50 (μM))
# [2] = K562 control cell line, averaged values, read-out: Spheroid assay K562 (IC50 (μM))
# [3] = Homo sapiens, MV4-11, MV-4-11, averaged values, read-out: Spheroid assay MV-4-11 (IC50 (μM))
# [4] = KG-1, KG1 control cell line, averaged values, read-out: Spheroid assay KG1 (IC50 (μM))
# [5] = MOLM14 (MLL-AF9), 8 d, absolute IC50 from AUC of confluence, individual measurements (not averaged), read-out: (2) Spheroid assay MOLM14 (IC50 (μM))
# [6] = 100 nM menin, 5 nM FITC-MBM1 peptide, individual measurements (not averaged), read-out: (1) Menin FP assay (IC50 (μM))
# [7] = KG-1, 192 h, KG1 (MLL wildtype control), 8 d, absolute IC50 from AUC of confluence, individual measurements (not averaged), read-out: (2) Spheroid assay KG1 (IC50 (μM))
SMILES,IC50 (MOLM14; [1]),IC50 (K562; [2]),IC50 (MV-4-11; [3]),IC50 (KG1; [4]),other results
CC(C)C[C@H](c1cnn(C)c1)N1CC2(CCN(c3ncnc4sc(CC(F)(F)F)cc34)C2)C1 [Compound 247],2.1 µM,> 15 µM,0.45 µM,> 15 µM,–
C[C@@H]1CN[C@H](C(=O)N2CC3(C2)CN(c2ncnc4sc(CC(F)(F)F)cc24)C3)C1 [Compound 82],1.8 µM,> 15 µM,0.38 µM,> 15 µM,–
CC(C)[C@H](C1CCNCC1)N1CC2(CCN(c3ncnc4sc(CC(F)(F)F)cc34)C2)C1 [Compound 168],0.86 µM,11.9 µM,0.19 µM,15 µM,–
N#Cc1cc2cc(CN3CC4(CCN(c5ncnc6sc(CC(F)(F)F)cc56)C4)C3)ccc2[nH]1 [Compound 17],–,–,–,–,"IC50 (MOLM14; Homo sapiens, MOLM-14, 192 h, MOLM14 (MLL-AF9), 8 d, absolute IC50 from AUC of confluence, individual measurements (not averaged), read-out: (2) Spheroid assay MOLM14 (IC50 (μM))): 3.4 µM; IC50 (MOLM14; [5]): 2.3 µM; IC50 (menin; [6]): 0.054 µM; IC50 (MV-4-11; MV-4-11 (MLL-AF4), 8 d, absolute IC50 from AUC of confluence, individual measurements (not averaged), read-out: (2) Spheroid assay MV-4-11 (IC50 (μM))): 4.9 µM and 0.76 µM and 0.84 µM; IC50 (KG1; [7]): 11 µM"
CC(C)[C@@H](N1CC2(CCN(c3ncnc4sc(CC(F)(F)F)cc34)C2)C1)C1(F)CN(C)C1 [Compound 304a],1.3 µM,–,0.44 µM,> 15 µM,–
CC(C)C(CC1CCN(C)CC1)N1CC2(CCN(c3ncnc4sc(CC(F)(F)F)cc34)C2)C1 (stereo not shown) [Compound 316],0.96 µM,–,0.4 µM,> 3.7 µM,–
CC(C)C(CC1CCNCC1)N1CC2(CCN(c3ncnc4sc(CC(F)(F)F)cc34)C2)C1 (stereo not shown) [Compound 315],1.5 µM,–,0.32 µM,> 15 µM,–
"CC(C1CCOCC1)N1CC2(CCN(c3ncnc4sc(CC(F)(F)F)cc34)C2)C1 (single isomer, unassigned) [Compound 155]",1.2 µM,–,0.7 µM,> 15 µM,–
CC[C@H](c1cnn(C)c1)N1CC2(CCN(c3ncnc4sc(CC(F)(F)F)cc34)C2)C1 [Compound 220],4.7 µM,> 15 µM,0.65 µM,> 15 µM,–
CC(C)[C@H](c1cnn(C)c1)N1CC2(CCN(c3ncnc4sc(CC(F)(F)F)cc34)C2)C1 [Compound 274],2.3 µM,> 15 µM,0.36 µM,> 15 µM,–
"Fc1ccc(CN2CC[C@@]3(CCN(c4ncnc5sc(CC(F)(F)F)cc45)C3)C2)cc1 (single isomer, unassigned) [Compound 292]",1.5 µM,–,0.29 µM,> 15 µM,–
CC(C)C(c1cnn(CCO)c1)N1CC2(CCN(c3ncnc4sc(CC(F)(F)F)cc34)C2)C1 (stereo not shown) [Compound 62],4 µM,–,0.64 µM,> 15 µM,–
CC(C)[C@H](C1CN(C)C1)N1CC2(CCN(c3ncnc4sc(CC(F)(F)F)cc34)C2)C1 [Compound 196],1.1 µM,> 15 µM,0.3 µM,> 15 µM,–
"Fc1ccc(CN2CC[C@]3(CCN(c4ncnc5sc(CC(F)(F)F)cc45)C3)C2)cc1 (single isomer, unassigned) [Compound 291]",1.2 µM,–,0.66 µM,> 15 µM,–
CC(C)[C@H](C1CCOCC1)N1CC2(CCN(c3ncnc4sc(CC(F)(F)F)cc34)C2)C1 [Compound 193],1.7 µM,> 15 µM,0.65 µM,> 15 µM,–
CC(C)C(c1cnn(C(C)C)c1)N1CC2(CCN(c3ncnc4sc(CC(F)(F)F)cc34)C2)C1 (stereo not shown) [Compound 214],1.4 µM,–,0.76 µM,> 15 µM,–
"FC(F)(F)Cc1cc2c(N3CC[C@]4(CCN(Cc5ccccc5)C4)C3)ncnc2s1 (single isomer, unassigned) [Compound 20b]",–,–,–,–,"IC50 (MOLM14; [5]): > 15 µM and 2.5 µM; IC50 (K562; 192 h, K562 (MLL wildtype control), 8 d, absolute IC50 from AUC of confluence, individual measurements (not averaged), read-out: (2) Spheroid assay K562 (IC50 (μM))): > 15 µM; IC50 (menin; [6]): 0.038 µM; IC50 (MV-4-11; Homo sapiens, MV4-11, 192 h, MV-4-11 (MLL-AF4), 8 d, absolute IC50 from AUC of confluence, individual measurements (not averaged), read-out: (2) Spheroid assay MV-4-11 (IC50 (μM))): 0.51 µM; IC50 (KG1; [7]): > 15 µM"
CC(Cc1ccc(F)cc1)N1CC2(CCN(c3ncnc4sc(CC(F)(F)F)cc34)C2)C1 (stereo not shown) [Compound 84],1.5 µM,–,0.58 µM,> 15 µM,–
CC(C)[C@H](C1CNC1)N1CC2(CCN(c3ncnc4sc(CC(F)(F)F)cc34)C2)C1 [Compound 273],0.86 µM,10.3 µM,0.08 µM,12 µM,"IC50 (menin; averaged values over all measurements, read-out: Menin FP assay (IC50 (μM))): 0.021 µM"

# Reference: patent publication US12084462B2, “Spiro bicyclic inhibitors of menin-MLL interaction” (Janssen Pharmaceutica NV, priority 2016, dated 2024)
